Read-outs that look alike come from different tables or passages of the source.
Experiments:
[1] = cited from earlier work
[2] = cited from earlier work; for solubility (in words): water; for water solubility at room temperature: pure (>95% w/w) compound, room temperature (25° C.)
[3] = Solubility in RO water at room temperature (25° C.) within 5 minutes, soluble if <10 FAU turbidity; assay type: physicochemical; details: crystalline material
Protocol: Hereinafter, unless specified otherwise, the solubility of material is determined in RO (reverse osmosis) water at room temperature (25° C.) within 5 minutes.
Hereinafter, where the solubility is expressed as “%”, it to be understood as number of grams of material soluble in 100 grams of solvent.
Hereinafter, the descriptive terms for solubility are provided according to definitions in Combined Compendium of Food Additive Specifications Vol. 4 (FAO JECFA Monographs 1, Rome 2006, page 41).
Procedure: Unless otherwise specified, transfer a known amount of the sample into a flask containing known amount of the specified solvent, shake for no less than 30 sec and no more than 5 min.”
The material is deemed soluble at certain concentration if the produced solution has <10 FAU (Formazin Attenuation Unit) turbidity value.

Row | solubility, JECFA descriptive term [3] | Compound | Rate of dissolution in H2O at 25° C. (descriptive) [1] | Rate of dissolution in H2O at 25° C. ([1]; in 5 minutes) | water solubility at room temperature [2] | solubility (in words) [2] | also measured
1 |  | C=C1C[C@@]23CC[C@H]4[C@@](C)(CCC[C@@]4(C)C(=O)O[C@@H]4O[C@H](CO)[C@@H](O)[C@H](O)[C@H]4O)[C@@H]2CC[C@]1(O[C@@H]1O[C@H](CO)[C@@H](O)[C@H](O[C@@H]2O[C@H](CO)[C@@H](O)[C@H](O)[C@H]2O)[C@H]1O[C@@H]1O[C@H](CO)[C@@H](O)[C@H](O)[C@H]1O)C3 [Form 3, Rebaudioside A] | High | (>30% in |  |  | 
2 |  | C=C1C[C@@]23CC[C@H]4[C@@](C)(CCC[C@@]4(C)C(=O)O[C@@H]4O[C@H](CO)[C@@H](O)[C@H](O)[C@H]4O)[C@@H]2CC[C@]1(O[C@@H]1O[C@H](CO)[C@@H](O)[C@H](O[C@@H]2O[C@H](CO)[C@@H](O)[C@H](O)[C@H]2O)[C@H]1O[C@@H]1O[C@H](CO)[C@@H](O)[C@H](O)[C@H]1O)C3 [Form 1, Rebaudioside A] | Very low |  |  |  | Rate of dissolution in H2O at 25° C. ([1]; in 60 minutes): (<0.2% in 60; solubility (in words) ([2]; listed as hydrate form of Rebaudioside A): lowest solubility
3 | very slightly soluble | C=C1C[C@@]23CC[C@H]4[C@@](C)(CCC[C@@]4(C)C(=O)O[C@@H]4O[C@H](CO)[C@@H](O)[C@H](O[C@@H]5O[C@H](CO)[C@@H](O)[C@H](O)[C@H]5O)[C@H]4O[C@@H]4O[C@H](CO)[C@@H](O)[C@H](O)[C@H]4O)[C@@H]2CC[C@]1(O[C@@H]1O[C@H](CO)[C@@H](O)[C@H](O[C@@H]2O[C@H](CO)[C@@H](O)[C@H](O)[C@H]2O)[C@H]1O[C@@H]1O[C@H](CO)[C@@H](O)[C@H](O)[C@H]1O)C3 [Rebaudioside M] |  |  | about 0.1% | very low water solubility | solubility (in words) ([2]; listed as rebaudioside M): poor aqueous solubility
4 | very slightly soluble | C=C1C[C@@]23CC[C@H]4[C@@](C)(CCC[C@@]4(C)C(=O)O[C@@H]4O[C@H](CO)[C@@H](O)[C@H](O)[C@H]4O[C@@H]4O[C@H](CO)[C@@H](O)[C@H](O)[C@H]4O)[C@@H]2CC[C@]1(O[C@@H]1O[C@H](CO)[C@@H](O)[C@H](O[C@@H]2O[C@H](CO)[C@@H](O)[C@H](O)[C@H]2O)[C@H]1O[C@@H]1O[C@H](CO)[C@@H](O)[C@H](O)[C@H]1O)C3 [Rebaudioside D] |  |  | less than 0.05% | very low water solubility | 
5 |  | C=C1C[C@@]23CC[C@H]4[C@@](C)(CCC[C@@]4(C)C(=O)O[C@@H]4O[C@H](CO)[C@@H](O)[C@H](O)[C@H]4O)[C@@H]2CC[C@]1(O[C@@H]1O[C@H](CO)[C@@H](O)[C@H](O[C@@H]2O[C@H](CO)[C@@H](O)[C@H](O)[C@H]2O)[C@H]1O[C@@H]1O[C@H](CO)[C@@H](O)[C@H](O)[C@H]1O)C3 [Form 4, Rebaudioside A] | High | (>35% in |  |  | solubility (in words) ([2]; listed as rebaudioside A amorphous forms): high solubility
6 |  | C=C1C[C@@]23CC[C@H]4[C@@](C)(CCC[C@@]4(C)C(=O)O[C@@H]4O[C@H](CO)[C@@H](O)[C@H](O)[C@H]4O)[C@@H]2CC[C@]1(O[C@@H]1O[C@H](CO)[C@@H](O)[C@H](O[C@@H]2O[C@H](CO)[C@@H](O)[C@H](O)[C@H]2O)[C@H]1O[C@@H]1O[C@H](CO)[C@@H](O)[C@H](O)[C@H]1O)C3 [Form 2, Rebaudioside A] | Intermediate | (<30% in 5 |  |  | 

Source: patent US11149050B2, “Highly soluble steviol glycosides” (PureCircle USA Inc., priority 2016, dated 2021)
